Experiment [1] deals with Vp HqsK (VP1876 HK; H-NOX-associated quorum sensing kinase) (Vibrio parahaemolyticus, UniProt Q87NJ2). The settings on record: 250 μM OMFP, pH 8.0, room temperature.
Experiment [2] has as its target Vibrio parahaemolyticus HqsK (VP1876) D499A (Vibrio parahaemolyticus) (UniProt Q87NJ2).

This is an account of results in paper PMC6759604 (Frontiers in Microbiology, 2019).

With `COc1ccc2c(c1)Oc1cc(OP(=O)(O)O)ccc1C21OC(=O)c2ccccc21` (centres unmarked) [3-O-methyl fluorescein phosphate], the “phosphatase assay, O-methylfluorescein release at 450 nm” value in experiment [1] was “Wild-type HqsK displays increasing OMF fluorescence over time, indicating Vp HqsK has phosphatase activity”. “Vibrio parahaemolyticus H-NOX (VP1877) (from UniProt Q87NJ1 1-179) (natural protein)”: in experiment [2], the inhibition of HqsK autophosphorylation ([gamma-32P]-ATP, SDS-PAGE, autoradiography) by Fe(II)-NO H-NOX; 69.4 uM H-NOX, 5.3 uM HqsK D499A, purified proteins, room temperature, anaerobic stood at 75%.
